Experiments:
Assay in all cases: Test C greenhouse herbicide test, pre- and postemergence
Type in all cases: in vivo
[1] = system: barnyardgrass (Echinochloa crus-galli)
Outline: (§1)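 Preemergence: seeds sown in a loam soil–sand blend and sprayed with test chemicals in a non-phytotoxic solvent mixture containing surfactant. Postemergence: plants grown in peat-based medium and treated at 2 to 18 cm (1- to 4-leaf stage). After 13 to 15 d in a greenhouse, injury was visually rated 0–100 against controls.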

[2] = system: blackgrass (Alopecurus myosuroides)
Outline: as §1

[3] = system: crabgrass, large (large crabgrass, Digitaria sanguinalis)
Outline: as §1

[4] = system: foxtail, giant (giant foxtail, Setaria faberii)
Outline: as §1

[5] = system: galium (catchweed bedstraw, Galium aparine)
Outline: as §1

[6] = system: johnsongrass (Sorghum halepense)
Outline: as §1

[7] = system: lambsquarters (Chenopodium album)
Outline: as §1

[8] = system: morningglory (Ipomoea coccinea)
Outline: as §1

[9] = system: nutsedge, yellow (yellow nutsedge, Cyperus esculentus)
Outline: as §1

[10] = system: oilseed rape (Brassica napus)
Outline: as §1

[11] = system: pigweed (Amaranthus retroflexus)
Outline: as §1

[12] = system: ragweed (common ragweed, Ambrosia elatior)
Outline: as §1

[13] = system: soybean (Glycine max)
Outline: as §1

[14] = system: velvetleaf (Abutilon theophrasti)
Outline: as §1

[15] = system: waterhemp (common waterhemp, Amaranthus rudis)
Outline: as §1

[16] = system: wheat (winter wheat, Triticum aestivum)
Outline: as §1

[17] = Postemergence, 31 g ai/ha, scale 0 to 100 (0 no effect, 100 complete control)
[18] = Postemergence, 125 g ai/ha, scale 0 to 100, 0 is no effect, 100 is complete control
[19] = Postemergence, 250 g ai/ha, scale 0 to 100, 0 no effect, 100 complete control, 13 to 15 d
[20] = Preemergence, 31 g ai/ha, scale 0 to 100, 0 is no effect, 100 is complete control
[21] = Preemergence, 62 g ai/ha, scale 0 to 100, 0 is no effect, 100 is complete control
[22] = Preemergence, 125 g ai/ha, scale 0 to 100, 0 is no effect, 100 is complete control
[23] = Preemergence, 250 g ai/ha, scale 0 to 100 (0 no effect, 100 complete control)
[24] = postemergence, 62 g ai/ha, scale 0 to 100, 0 no effect, 100 complete control

Compound: CCC(=O)Oc1c(C)nn(C)c(=O)c1-c1c(C)sc2ccc(Cl)cc12 [Compound 109]
- Plant response rating, Barnyardgrass [1, 17]: 25
- Plant response rating, Barnyardgrass [1, 18]: 55
- Plant response rating, Barnyardgrass [1, 19]: 65
- Plant response rating, Barnyardgrass [1, 20]: 10
- Plant response rating, Barnyardgrass [1, 21]: 35
- Plant response rating, Barnyardgrass [1, 22]: 70
- Barnyardgrass plant response rating [1, 23]: 80
- Barnyardgrass plant response rating [1, 24]: 30
- Plant response rating, Blackgrass [2, 17]: 20
- Plant response rating, Blackgrass [2, 18]: 50
- Plant response rating, Blackgrass [2, 19]: 80
- Plant response rating, Blackgrass [2, 20]: 35
- Plant response rating, Blackgrass [2, 21]: 30
- Plant response rating, Blackgrass [2, 22]: 85
- Blackgrass plant response rating [2, 23]: 90
- Blackgrass plant response rating [2, 24]: 25
- Plant response rating, Crabgrass, Large [3, 17]: 35
- Plant response rating, Crabgrass, Large [3, 18]: 60
- Plant response rating, Crabgrass, Large [3, 19]: 60
- Plant response rating, Crabgrass, Large [3, 20]: 40
- Plant response rating, Crabgrass, Large [3, 21]: 65
- Plant response rating, Crabgrass, Large [3, 22]: 70
- Crabgrass, Large plant response rating [3, 23]: 80
- Crabgrass, Large plant response rating [3, 24]: 40
- Plant response rating, Foxtail, Giant [4, 17]: 45
- Plant response rating, Foxtail, Giant [4, 18]: 80
- Plant response rating, Foxtail, Giant [4, 19]: 85
- Plant response rating, Foxtail, Giant [4, 20]: 65
- Plant response rating, Foxtail, Giant [4, 21]: 85
- Plant response rating, Foxtail, Giant [4, 22]: 85
- Foxtail, Giant plant response rating [4, 23]: 90
- Plant response rating, Galium [5, 17]: 98
- Plant response rating, Galium [5, 18]: 100
- Plant response rating, Galium [5, 19]: 100
- Plant response rating, Galium [5, 20]: 90
- Plant response rating, Galium [5, 21]: 90
- Plant response rating, Galium [5, 22]: 90
- Galium plant response rating [5, 23]: 90
- Plant response rating, Johnsongrass [6, 17]: 0
- Plant response rating, Johnsongrass [6, 18]: 5
- Plant response rating, Johnsongrass [6, 19]: 5
- Plant response rating, Johnsongrass [6, 20]: 0
- Plant response rating, Johnsongrass [6, 21]: 30
- Plant response rating, Johnsongrass [6, 22]: 40
- Johnsongrass plant response rating [6, 23]: 65
- Plant response rating, Lambsquarters [7, 17]: 95
- Plant response rating, Lambsquarters [7, 18]: 100
- Plant response rating, Lambsquarters [7, 19]: 100
- Plant response rating, Lambsquarters [7, 20]: 80
- Plant response rating, Lambsquarters [7, 21]: 90
- Plant response rating, Lambsquarters [7, 22]: 90
- Lambsquarters plant response rating [7, 23]: 100
- Plant response rating, Morningglory [8, 17]: 95
- Plant response rating, Morningglory [8, 18]: 100
- Plant response rating, Morningglory [8, 19]: 100
- Plant response rating, Morningglory [8, 20]: 85
- Plant response rating, Morningglory [8, 21]: 85
- Plant response rating, Morningglory [8, 22]: 90
- Morningglory plant response rating [8, 23]: 98
- Plant response rating, Nutsedge, Yellow [9, 17]: 45
- Plant response rating, Nutsedge, Yellow [9, 18]: 80
- Plant response rating, Nutsedge, Yellow [9, 19]: 80
- Plant response rating, Nutsedge, Yellow [9, 20]: 40
- Plant response rating, Nutsedge, Yellow [9, 21]: 70
- Plant response rating, Nutsedge, Yellow [9, 22]: 90
- Nutsedge, Yellow plant response rating [9, 23]: 80
- Plant response rating, Oilseed Rape [10, 17]: 70
- Plant response rating, Oilseed Rape [10, 18]: 95
- Plant response rating, Oilseed Rape [10, 19]: 95
- Plant response rating, Oilseed Rape [10, 20]: 5
- Plant response rating, Oilseed Rape [10, 21]: 85
- Plant response rating, Oilseed Rape [10, 22]: 85
- Oilseed Rape plant response rating [10, 23]: 90
- Plant response rating, Pigweed [11, 17]: 95
- Plant response rating, Pigweed [11, 18]: 100
- Plant response rating, Pigweed [11, 19]: 100
- Plant response rating, Pigweed [11, 20]: 100
- Plant response rating, Pigweed [11, 21]: 100
- Plant response rating, Pigweed [11, 22]: 100
- Pigweed plant response rating [11, 23]: 100
- Plant response rating, Ragweed [12, 17]: 80
- Plant response rating, Ragweed [12, 18]: 100
- Plant response rating, Ragweed [12, 19]: 100
- Plant response rating, Ragweed [12, 20]: 95
- Plant response rating, Ragweed [12, 21]: 90
- Plant response rating, Ragweed [12, 22]: 95
- Ragweed plant response rating [12, 23]: 100
- Plant response rating, Soybean [13, 17]: 0
- Plant response rating, Soybean [13, 18]: 30
- Plant response rating, Soybean [13, 19]: 25
- Plant response rating, Soybean [13, 20]: 0
- Plant response rating, Soybean [13, 21]: 0
- Plant response rating, Soybean [13, 22]: 0
- Soybean plant response rating [13, 23]: 0
- Plant response rating, Velvetleaf [14, 17]: 75
- Plant response rating, Velvetleaf [14, 18]: 98
- Plant response rating, Velvetleaf [14, 19]: 100
- Plant response rating, Velvetleaf [14, 20]: 60
- Plant response rating, Velvetleaf [14, 21]: 75
- Plant response rating, Velvetleaf [14, 22]: 80
- Velvetleaf plant response rating [14, 23]: 90
- Plant response rating, Waterhemp [15, 17]: 80
- Plant response rating, Waterhemp [15, 18]: 90
- Plant response rating, Waterhemp [15, 19]: 100
- Plant response rating, Waterhemp [15, 20]: 80
- Plant response rating, Waterhemp [15, 21]: 90
- Plant response rating, Waterhemp [15, 22]: 100
- Waterhemp plant response rating [15, 23]: 100
- Plant response rating, Wheat [16, 17]: 0
- Plant response rating, Wheat [16, 18]: 10
- Plant response rating, Wheat [16, 19]: 35
- Plant response rating, Wheat [16, 20]: 0
- Plant response rating, Wheat [16, 21]: 10
- Plant response rating, Wheat [16, 22]: 10
- Wheat plant response rating [16, 23]: 15

From patent US10597388B2, “Pyridazinone herbicides” (FMC CORPORATION, priority 2014, dated 2020)
